Earlier results in patent US20260284036A1 (priority 2023, published 2026).

Conditions: administered orally; significant first-pass metabolism

Compound: C=CCN1CC[C@]23c4c5ccc(O)c4O[C@H]2C(=O)CC[C@@]3(O)[C@H]1C5 [naloxone]
- apparent bioavailability: 1-2%
